Results: US20240173333A1, “Treating Alagille Syndrome (ALGS)” (priority 2022, published 2024)
Values joined by “and” are separate entries in the source; they are usually repeats but may differ in a detail not shown here. Equal values may be shown once. “Also recorded” adds a separate entry of the source. Marks after values point to notes of the source that are not given here.

Assays:
[1] = test system: patients with Alagille syndrome (ALGS); assay: ASSERT: global impression of change (CGIC, CaGIC, PGIC) and exit survey; type: in vivo, human; details: week 24
Experimental: FIG. 27 is a table showing global impressions of change (GIC) over time. GIC items are assessed on a 7-point scale: 1=very much better; 2=much/moderately better; 3=a little better; 4=no change; 5=a little worse; 6=much/moderately worse; 7=very much worse. Changes based on the GIC were analyzed using a proportional odds model with treatment and baseline GIS scores as covariates considering three categories (better, no change, worse). Better includes “very much better,” “much better,” and “a little better,” and worse includes “a little worse,” “much worse,” and “very much worse.” CaGIC=Caregiver Global Impression of Change. CGIC=Clinician Global Impression of Change. PGIC=Patient Global Impression of Change. Global Impression of Change and Global Impression of Symptom Measures. Patients (≥8 years of age), caregivers, and clinicians completed global impression of change (GIC) measures (patient global impression of change (PGIC), caregiver global impression of change (CaGIC), and clinical global impression of change (CGIC)) and the global impression of symptoms (GIS) measures (patient global impression of symptoms (PGIS), caregiver global impression of symptoms (CaGIS), clinical global impression of symptoms (CGIS)) at randomization (Study Day 1; PGIS only), Week 4, 12, and 24/EOT. The GIC items assessed changes in itch (patient version), scratching (caregiver and clinician versions), and sleep (all versions) since starting the study drug. The GIS items assessed itch (patient version), scratching (caregiver and clinician versions), and sleep (all versions) in the past week. Caregivers and clinicians completed the GIC and GIS for all patients; those patients ≥8 years of age completed the patient version.

[2] = test system: patients with Alagille syndrome (ALGS); assay: ASSERT: safety, treatment-emergent adverse events; type: in vivo, human
Description: Safety. The primary safety analysis for this study included the incidence of total treatment-emergent adverse events (AEs) and treatment-emergent adverse events (TEAEs) categorized by causality, severity, and seriousness assessments made by the investigator by comparing study drug exposure to placebo. Other safety assessments included physical examinations, concomitant medications, vital signs, laboratory tests, and liver ultrasound and elastography.

[3] = test system: patients with Alagille syndrome (ALGS); assay: Pooled ASSERT and ASSERT-EXT: observer-reported scratching scores; type: in vivo, human; details: for mean scratching score: pooled
Experimental: (§1) In the completed 24-week ASSERT study, patients with ALGS with history of significant pruritus and elevated serum BAs were randomized 2:1 to once-daily odevixibat 120 μg/kg or placebo, respectively. Patients who completed ASSERT could enter ASSERT-EXT, an ongoing, 72-week open-label extension study in which all patients receive odevixibat 120 μg/kg/day. This pooled analysis included all odevixibat-treated patients from ASSERT and/or ASSERT-EXT and spans from patients' first dose of odevixibat to a data cut-off of Sep. 9, 2022. Assessments over up to 36 weeks of treatment included change in observer-reported scratching scores and sleep parameters, as well as levels of serum BAs, autotaxin (a proposed meditator of pruritus), and 7 alpha-hydroxy-4-cholesten-3-one (C4; a marker of bile acid synthesis). Safety evaluations included assessment of alanine aminotransferase (ALT), total bilirubin, and treatment-emergent adverse events (TEAEs).

[4] = test system: patients with Alagille syndrome (ALGS); assay: Pooled ASSERT and ASSERT-EXT: sleep parameters; type: in vivo, human
Experimental: as §1

[5] = test system: patients with Alagille syndrome (ALGS); assay: ASSERT pruritus responders: TEAEs
Description: Treatment with concomitant medications for pruritus was permitted provided the patient was on a stable dosage for ≥4 weeks prior to enrollment that was maintained throughout the study.
Pruritus responders were defined as patients having a ≥1-point decrease in ObsRO scratching score from baseline to weeks 21-24).

CCCCC1(CCCC)CN(c2ccccc2)c2cc(SC)c(OCC(=O)N[C@@H](C(=O)N[C@@H](CC)C(=O)O)c3ccc(O)cc3)cc2S(=O)(=O)N1 [odevixibat, 1,1-dioxo-3,3-dibutyl-5-phenyl-7-methylthio-8-(N-{(R)-α-[N-((S)-1-carboxypropyl)carbamoyl]-4-hydroxybenzyl}carbamoylmethoxy)-2,3,4,5-tetrahydro-1,2,5-benzothiadiazepine]
CGIC for scratching, percentage of clinician responses (improved) [1]: 80% | CGIC for sleep, percentage of clinician responses (improved) [1]: 74% | CaGIC for scratching, percentage of caregiver responses (improved pruritus) [1]: 87% and 88% | CaGIC for sleep, percentage of caregiver responses (improved sleep) [1]: 78% | PGIC for itching, percentage of patient responses (improved) ([1]; patients ≥8 years): 80% | PGIC for sleep, percentage of patient responses (improved) ([1]; patients ≥8 years): 70% | odds of improvement in sleep, relative to placebo (CaGIC) ([1]; proportional odds model): nine times higher | odds of improvement versus no change or worsening in scratching, relative to placebo (CaGIC) ([1]; proportional odds model): 15 times | tolerability ([2]; 120 μg/kg/day over 24 weeks): generally well tolerated | deaths or TEAEs leading to study drug discontinuation ([2]; 24 weeks): No deaths or treatment-emergent adverse events leading to study drug discontinuation; also recorded: no deaths or treatment-emergent adverse events (TEAEs) leading to discontinuation of treatment | incidence of COVID-19 ([2]; 24 weeks): 14.3% | incidence of GI disorders ([2]; 24 weeks): 34% | incidence of abdominal pain (preferred terms abdominal pain and abdominal pain upper) ([2]; 24 weeks): 14% | incidence of bronchitis ([2]; 24 weeks): 8.6% | incidence of infections ([2]; 24 weeks): 51.4% | incidence of liver-related events ([2]; 24 weeks): 11% | incidence of respiratory tract infection ([2]; 24 weeks): 8.6% | incidence of upper respiratory tract infection ([2]; 24 weeks): 8.6% | incidence of SAEs ([2]; 24 weeks, 120 μg/kg/day): 14.3% | incidence of drug-related TEAE diarrhea ([2]; 24 weeks, 120 μg/kg/day): 11% | incidence of drug-related TEAEs ([2]; 24 weeks, 120 μg/kg/day): 23% | incidence of treatment-emergent diarrhea ([2]; 24 weeks, 120 μg/kg/day): 29% | patients with ALT and AST elevations ≥3× baseline without concurrent (within 30 days) elevations in total bilirubin ≥2× baseline ([2]; 24 weeks, n=35): 2 patients | serious infections reported ([2]; 24 weeks, n=35): 3 patients | patients who experienced at least one TEAE ([2]; 26 of 35, 24 weeks, 120 μg/kg/day): 74% | liver decompensation events ([2]; during the study): no cases | mean scratching score ([3]; baseline, before odevixibat): 2.6 | patients with a pruritus response (≥1 point reduction from baseline in scratching score) ([3]; last assessment on odevixibat, n=37/49): 76% | mean scratching score ([3]; weeks 1-4, 120 μg/kg/day): 1.7 | mean scratching score ([3]; weeks 21-24): 1.0 | mean scratching score ([3]; weeks 33-36): 0.6 | Days seeing blood due to scratching, Mean (SD) % of Days ([4]; Baseline, n=50): 35% (34%) | Days sleeping with caregiver, Mean (SD) % of Days ([4]; Baseline, n=50): 43% (45%) | Days with help falling asleep, Mean (SD) % of Days ([4]; Baseline, n=50): 57% (45%) | Days with soothing, Mean (SD) % of Days ([4]; Baseline, n=50): 64% (43%) | Days seeing blood due to scratching, Mean (SD) % of Days ([4]; Weeks 33-36, n=21): 5.7% (14%) | Days sleeping with caregiver, Mean (SD) % of Days ([4]; Weeks 33-36, n=21): 10% (26%) | Days with help falling asleep, Mean (SD) % of Days ([4]; Weeks 33-36, n=21): 10% (18%) | Days with soothing, Mean (SD) % of Days ([4]; Weeks 33-36, n=21): 12% (25%) | Days seeing blood due to scratching, Mean (95% CI) Change From Baseline to Week 33-36 ([4]; n=21): −30% (−42%, −17%)*** | Days sleeping with caregiver, Mean (95% CI) Change From Baseline to Week 33-36 ([4]; n=21): −44% (−64%, −24%)*** | Days with help falling asleep, Mean (95% CI) Change From Baseline to Week 33-36 ([4]; n=21): −60% (−78%, −43%)*** | Days with soothing, Mean (95% CI) Change From Baseline to Week 33-36 ([4]; n=21): −59% (−77%, −40%)*** | pruritus responders reporting any TEAE ([5]; 21 of 28): 75% | TEAEs leading to death or study drug discontinuation ([5]; pruritus responders): no TEAEs leading to death or study drug discontinuation were reported | Any TEAE ([5]; pruritus responders, n=28): 21 (75) n (%) | Any TEAE: Mild ([5]; pruritus responders, n=28): 10 (36) n (%) | Any TEAE: Moderate ([5]; pruritus responders, n=28): 8 (29) n (%) | Any TEAE: Severe ([5]; pruritus responders, n=28): 3 (11) n (%) | Drug-related TEAE: Abdominal pain ([5]; pruritus responders, n=28): 1 (4) n (%) | Drug-related TEAE: Abdominal pain upper ([5]; pruritus responders, n=28): 1 (4) n (%) | Drug-related TEAE: Blood triglycerides increased ([5]; pruritus responders, n=28): 1 (4) n (%) | Drug-related TEAE: Diarrhea ([5]; pruritus responders, n=28): 4 (14) n (%) | Drug-related TEAE: Feces discolored ([5]; pruritus responders, n=28): 1 (4) n (%) | Drug-related TEAE: Frequent bowel movements ([5]; pruritus responders, n=28): 1 (4) n (%) | Drug-related TEAE: Hematemesis ([5]; pruritus responders, n=28): 1 (4) n (%) | Drug-related TEAE: Hepatic enzyme increased ([5]; pruritus responders, n=28): 1 (4) n (%) | Drug-related TEAE: INR increased ([5]; pruritus responders, n=28): 1 (4) n (%) | Drug-related TEAE: Nausea ([5]; pruritus responders, n=28): 1 (4) n (%) | Drug-related TEAE: Vomiting ([5]; pruritus responders, n=28): 2 (7) n (%) | Drug-related TEAE: Weight decreased ([5]; pruritus responders, n=28): 1 (4) n (%) | Drug-related TEAEs ([5]; pruritus responders, n=28): 8 (29) n (%) | Drug-related serious TEAEs ([5]; pruritus responders, n=28): 1 (4)^a n (%) | Serious TEAEs ([5]; pruritus responders, n=28): 3 (11) n (%) | TEAEs leading to discontinuation ([5]; pruritus responders, n=28): 0 n (%) | TEAEs leading to treatment interruption ([5]; pruritus responders, n=28): 2 (7) n (%)
